{
  "source": "patent US12383527B2",
  "about": "“Methods for treating triple negative breast cancer using salvianolic acid B” (HOWARD UNIVERSITY, priority 2018, dated 2025)",
  "key": {"MDA-MB-231 cells": {"system": "MDA-MB-231 cells", "experiment": "Colony formation assay", "type": "cell-based, human", "conditions": "colonies grown 10 days", "experimental": "Colony formation assay. The inhibitory effect of Sal-B was further confirmed by colony formation assay. The colony formation assay was performed as described previously (Hao Y, et al., “Enforced expression of miR-101 inhibits prostate cancer cell growth by modulating the COX-2 pathway in vivo,” Cancer Prev Res (Phila). 2011; 4: 1073-1083). Briefly, MDA cells were seeded at a density of 300 cells per well in 6-well plates, cultured overnight, and then treated with Sal-B at different concentrations (1, 10, 20, 50, and 100 μM) for 24 hours. Following treatment, the old medium containing Sal-B was replaced with fresh drug-free media and the cells were allowed to grow for 10 days to permit colony formation from viable clonogenic cells. Colonies were stained with 0.1% trypan blue in 50% ethanol and were counted manually under microscopy with a grid printed on a transparent plastic sheet to keep track of colonies counted. The colonies containing more than 50 cells were considered to represent a viable clonogenic cell. The experiment was completed in triplicate for each treatment."}, "survivin": {"system": "survivin", "experiment": "Immunohistochemical staining of survivin in MDA tumor xenografts", "type": "in vivo, athymic nude mice", "conditions": "Sal-B 80 mg/kg three times per week; versus untreated group", "experimental": "Human tumor xenografts in athymic nude mice. […] The animal protocol was approved by the Howard University Animal Care and Use Committee. Four-week-old female athymic nude mice (Nu/Nu) were obtained from Harlan Sprague Dawley (Indianapolis, IN). All mice were provided the Harlan Teklad #2018 Global 18% protein rodent diet and water ad libitum. Mice were housed in temperature-controlled rooms (74±2° F.) with a 12-hour alternating light-dark cycle. MDA cells (3×10^6/50 μL/spot) were subcutaneously injected into the both sides of lower back of mice using a 27-gauge needle. […]\nImmunohistochemical staining was performed as described previously (Hao Y, et al., “Enforced expression of miR-101 inhibits prostate cancer cell growth by modulating the COX-2 pathway in vivo,” Cancer Prev Res (Phila), 2011; 4: 1073-1083). […] For the quantification, ten high-magnification (40×) fields were randomly selected from each slide of tumors and the positive cells were counted. The protein expression was expressed as the average number of positive cells per high magnification field."}},
  "data": [
    {"smiles": "O=C(/C=C/c1ccc(O)c2c1[C@H](C(=O)O[C@H](Cc1ccc(O)c(O)c1)C(=O)O)[C@@H](c1ccc(O)c(O)c1)O2)O[C@H](Cc1ccc(O)c(O)c1)C(=O)O", "note": "[Sal-B, Salvianolic acid B]", "values": [
      {"measurement": "colony formation capability relative to control cells", "setting": "MDA-MB-231 cells; Sal-B 1 μM for 24 hours", "value": "approximately 69%"},
      {"measurement": "colony formation capability", "setting": "MDA-MB-231 cells; Sal-B 100 μM for 24 hours", "value": "complete inhibition"},
      {"measurement": "survivin level in tumors", "setting": "survivin", "value": "decreasing"}
    ]}
  ]
}
